# ChEMBL document CHEMBL1201862, “PubChem BioAssay data set” (2004)
#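 Dose response: 5 concentrations. Exposure: 48 h. Format: 96-well plates. Endpoint: linear interpolation; highest concentration if not reached. At the GI50, growth is halved.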 Calls of active or inactive are those of the source. Rule as the data show it: active = GI50 up to about 1.1 µM and inactive = higher.
# Legend:
# Test in all cases: NCI-60 cell line screen, 48 h
# 786-0 = test system: 786-0
# A498 = test system: A498
# A549 = test system: A549
# ACHN = test system: ACHN
# CAKI-1 = test system: CAKI-1
# CCRF-CEM = test system: CCRF-CEM
# COLO 205 = test system: COLO 205
# DU-145 = test system: DU-145
# EKVX = test system: EKVX
# HCC 2998 = test system: HCC 2998
# HCT-116 = test system: HCT-116
# HCT-15 = test system: HCT-15
# HL-60 = test system: HL-60
# HOP-62 = test system: HOP-62
# HT-29 = test system: HT-29
# Hs-578T = test system: Hs-578T
# IGROV-1 = test system: IGROV-1
# K562 = test system: K562
# KM12 = test system: KM12
# LOX IMVI = test system: LOX IMVI
# M14 = test system: M14
# MCF7 = test system: MCF7
# MDA-MB-231 = test system: MDA-MB-231
# MDA-MB-435 = test system: MDA-MB-435
# MDA-N = test system: MDA-N
# MOLT-4 = test system: MOLT-4
# Malme-3M = test system: Malme-3M
# NCI-H226 = test system: NCI-H226
# NCI-H23 = test system: NCI-H23
# NCI-H460 = test system: NCI-H460
# NCI-H522 = test system: NCI-H522
# NCI/ADR-RES = test system: NCI/ADR-RES
# OVCAR-3 = test system: OVCAR-3
# OVCAR-4 = test system: OVCAR-4
# OVCAR-5 = test system: OVCAR-5
# OVCAR-8 = test system: OVCAR-8
# PC-3 = test system: PC-3
# RPMI-8226 = test system: RPMI-8226
# RXF 393 = test system: RXF 393
# SF-268 = test system: SF-268
# SF-295 = test system: SF-295
# SF-539 = test system: SF-539
# SK-MEL-28 = test system: SK-MEL-28
# SK-MEL-2 = test system: SK-MEL-2
# SK-MEL-5 = test system: SK-MEL-5
# SK-OV-3 = test system: SK-OV-3
# SN12C = test system: SN12C
# SNB-19 = test system: SNB-19
# SNB-75 = test system: SNB-75
# SW-620 = test system: SW-620
# T47D = test system: T47D
# TK-10 = test system: TK-10
# U-251 = test system: U-251
# UACC-257 = test system: UACC-257
# UACC-62 = test system: UACC-62
# SR = test system: SR
# UO-31 = test system: UO-31
smiles,measurement,setting,value
Cc1ccccc1NC(=N)Nc1ccccc1C,GI50,786-0,> 100 µM (inactive)
same,GI50,A498,> 100 µM (inactive)
same,GI50,A549,> 100 µM (inactive)
same,GI50,ACHN,> 100 µM (inactive)
same,GI50,CAKI-1,> 100 µM (inactive)
same,GI50,CCRF-CEM,> 100 µM (inactive)
same,GI50,COLO 205,> 100 µM (inactive)
same,GI50,DU-145,> 100 µM (inactive)
same,GI50,EKVX,> 100 µM (inactive)
same,GI50,HCC 2998,21.9 µM (inactive)
same,GI50,HCT-116,> 100 µM (inactive)
same,GI50,HCT-15,> 100 µM
same,GI50,HL-60,> 100 µM (inactive)
same,GI50,HOP-62,> 100 µM (inactive)
same,GI50,HT-29,> 100 µM (inactive)
same,GI50,Hs-578T,> 100 µM (inactive)
same,GI50,IGROV-1,> 100 µM (inactive)
same,GI50,K562,> 100 µM (inactive)
same,GI50,KM12,> 100 µM (inactive)
same,GI50,LOX IMVI,> 100 µM (inactive)
same,GI50,M14,66.8 µM (inactive)
same,GI50,MCF7,> 100 µM (inactive)
same,GI50,MDA-MB-231,> 100 µM (inactive)
same,GI50,MDA-MB-435,> 100 µM (inactive)
same,GI50,MDA-N,> 100 µM (inactive)
same,GI50,MOLT-4,> 100 µM (inactive)
same,GI50,Malme-3M,> 100 µM (inactive)
same,GI50,NCI-H226,> 100 µM (inactive)
same,GI50,NCI-H23,> 100 µM (inactive)
same,GI50,NCI-H460,> 100 µM (inactive)
same,GI50,NCI-H522,> 100 µM (inactive)
same,GI50,NCI/ADR-RES,> 100 µM (inactive)
same,GI50,OVCAR-3,> 100 µM (inactive)
same,GI50,OVCAR-4,> 100 µM (inactive)
same,GI50,OVCAR-5,> 100 µM (inactive)
same,GI50,OVCAR-8,> 100 µM (inactive)
same,GI50,PC-3,> 100 µM (inactive)
same,GI50,RPMI-8226,> 100 µM (inactive)
same,GI50,RXF 393,> 100 µM (inactive)
same,GI50,SF-268,> 100 µM (inactive)
same,GI50,SF-295,> 100 µM (inactive)
same,GI50,SF-539,> 100 µM (inactive)
same,GI50,SK-MEL-28,> 100 µM (inactive)
same,GI50,SK-MEL-2,> 100 µM (inactive)
same,GI50,SK-MEL-5,> 100 µM (inactive)
same,GI50,SK-OV-3,> 100 µM (inactive)
same,GI50,SN12C,> 100 µM (inactive)
same,GI50,SNB-19,> 100 µM (inactive)
same,GI50,SNB-75,54.6 µM (inactive)
same,GI50,SW-620,> 100 µM (inactive)
same,GI50,T47D,> 100 µM (inactive)
same,GI50,TK-10,> 100 µM (inactive)
same,GI50,U-251,> 100 µM (inactive)
same,GI50,UACC-257,> 100 µM (inactive)
same,GI50,UACC-62,> 100 µM (inactive)
CC(=O)OCC(OC(C)=O)C(OC(C)=O)C(/C=N/N(C(C)=O)S(=O)(=O)c1ccc(/C=C2\NC(=O)NC2=O)cc1)OC(C)=O (stereo unspecified),GI50,786-0,> 100 µM (inactive)
same,GI50,A498,> 100 µM (inactive)
same,GI50,A549,> 100 µM (inactive)
same,GI50,ACHN,> 100 µM (inactive)
same,GI50,CCRF-CEM,50.6 µM (inactive)
same,GI50,COLO 205,> 100 µM (inactive)
same,GI50,DU-145,> 100 µM (inactive)
same,GI50,EKVX,> 100 µM (inactive)
same,GI50,HCT-116,> 100 µM (inactive)
same,GI50,HCT-15,> 100 µM
same,GI50,Hs-578T,> 100 µM (inactive)
same,GI50,IGROV-1,> 100 µM (inactive)
same,GI50,M14,> 100 µM (inactive)
same,GI50,MDA-MB-231,> 100 µM (inactive)
same,GI50,MDA-MB-435,> 100 µM (inactive)
same,GI50,MDA-N,> 100 µM (inactive)
same,GI50,MOLT-4,> 100 µM (inactive)
same,GI50,NCI-H23,> 100 µM (inactive)
same,GI50,NCI-H460,> 100 µM (inactive)
same,GI50,NCI/ADR-RES,> 100 µM (inactive)
same,GI50,OVCAR-3,> 100 µM (inactive)
same,GI50,OVCAR-4,> 100 µM (inactive)
same,GI50,OVCAR-5,> 100 µM (inactive)
same,GI50,PC-3,> 100 µM (inactive)
same,GI50,SF-268,> 100 µM (inactive)
same,GI50,SK-MEL-5,> 100 µM (inactive)
same,GI50,SK-OV-3,> 100 µM (inactive)
same,GI50,SNB-19,> 100 µM (inactive)
same,GI50,SR,> 100 µM (inactive)
same,GI50,SW-620,> 100 µM (inactive)
same,GI50,T47D,> 100 µM (inactive)
same,GI50,TK-10,> 100 µM (inactive)
same,GI50,U-251,> 100 µM (inactive)
same,GI50,UACC-257,> 100 µM (inactive)
same,GI50,UACC-62,> 100 µM (inactive)
same,GI50,UO-31,> 100 µM (inactive)
